Experimental findings from patent publication US7981896B2 (Athersys, Inc., priority 2006, dated 2011) are described below.

Molecules are shown by their SMILES.

The target in the test is T1, human histamine H3 receptor (Homo sapiens, UniProt Q9Y5N1).
T1 construct: endogenous in cells; host or cells: HT1080-Gqαi5 RAGE clone (RAGE-H3), human fibrosarcoma line; integrated RAGE vector pFG8-HH3 supplies exon 1, the cell's own gene supplies the other exons
T1 sequence (Q9Y5N1 whole entry): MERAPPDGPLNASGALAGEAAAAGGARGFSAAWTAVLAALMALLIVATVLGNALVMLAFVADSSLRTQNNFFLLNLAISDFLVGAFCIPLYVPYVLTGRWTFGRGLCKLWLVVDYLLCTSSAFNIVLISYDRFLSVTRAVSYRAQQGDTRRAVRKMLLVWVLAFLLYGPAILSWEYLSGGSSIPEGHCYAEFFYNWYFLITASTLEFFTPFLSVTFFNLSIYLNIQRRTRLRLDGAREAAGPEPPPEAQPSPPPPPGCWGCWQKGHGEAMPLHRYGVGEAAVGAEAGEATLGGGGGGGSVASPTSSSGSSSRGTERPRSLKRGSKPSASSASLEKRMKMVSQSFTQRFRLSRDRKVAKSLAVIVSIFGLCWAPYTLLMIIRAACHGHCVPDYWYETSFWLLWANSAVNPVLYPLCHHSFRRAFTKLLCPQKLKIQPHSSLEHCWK
Briefly: Competition radioligand binding assay with [125I]iodoproxyfan on membranes of RAGE-H3 (HT1080-Gqαi5) cells expressing human H3 receptor. The conditions noted are these: ~0.15 nM [125I]iodoproxyfan, 1.5 hrs at room temperature, head does not name the quantity (apparent Ki by Cheng-Prussof). Here is the method:
Representative compounds of the present invention that were prepared by the procedures of Examples 1-83 were evaluated in binding assays against cells expressing human H3 receptor by the following procedure.
[^125I]iodoproxyfan (2000 Ci/mmol) was obtained from Amersham Bioscience (Piscataway, N.J.). All other chemicals were either from Sigma-Aldrich (St. Louis, Mo.) or Tocris Cookson Inc. (Ellisville, Mo.).
The human histamine H3 receptor was stably expressed in HT1080 cells containing the chimeric G-protein, Gq[…]i5 (Coward et al., Anal Biochem 1999; 270:242-8). HT1080-Gqαi5 cells were grown in alpha-modified MEM containing 10% fetal bovine serum and 7 μg/ml blasticidin at 37° C. in 5% CO2/95% atmosphere. Cells (4.8×10^9) were irradiated with 50 rads from a ^137Cs source and the pFG8-HH3 RAGE (Random Activation of Gene Expression; see Harrington et al., Nature Biotechnology. 2001; 19:440-45) vector was subsequently integrated into the cells via electroporation (250V, 600 μF, 50Ω). The RAGE vector pFG8-HH3 contained cDNA sequence coding for the first exon (83 amino acids) of human H3 receptor. After electroporation, cells were plated in T75 flasks and grown in alpha-modified MEM. The culture medium was replaced 48 hrs after electroporation with alpha-modified MEM, 10% fetal bovine serum, 500 μg/ml hygromycin B and 3 μg/ml puromycin. Medium was replaced every four days during cell expansion. To identify RAGE activated cells expressing the H3 receptor, pools of approximately 10,000 colonies (5×10^7-1.5×10^8 cells total) were screened by PCR for the desired gene product (using primers specific to the RAGE vector and exon 2 of the H3 receptor). […] Positive 100 cells/well pools were identified by PCR, confirmed by sequencing, and subsequently subcloned to 0.8 cells/well. Once clones expressing the H3 receptor were identified by PCR analysis, assays (FLIPR or radioligand binding) were performed to confirm that the activated gene produced functional protein. The protein expression in the initial clones obtained from the RAGE library was increased by growth in the presence of methotrexate. Since the integrated RAGE vector contains the DHFR gene, such treatment selects for cells that have amplified the genetic locus containing the RAGE insert. Subclones obtained after methotrexate amplification were tested for functional activity in FLIPR assays to identify the clone that was most suitable for HTS. The final HT1080-Gqαi5 RAGE clone (RAGE-H3) expressing the human histamine H3 receptor was grown in alpha-modified MEM containing 10% fetal bovine serum, 3 μg/ml puromycin, 500 μg/ml hygromycin B, 3.2 μM methotrexate at 37° C. in 5% CO2/95% atmosphere.
RAGE-H3 cells (10^9) were washed twice with cold PBS, scraped off the plates, and centrifuged at 1000×g for 5 minutes. Cells were resuspended in ice-cold 10 mM Tris HCl, pH 7.4, containing 5 mM EDTA and protease inhibitor cocktail tablets (Roche Molecular Biochemicals). After incubating on ice for 10 min, the cells were homogenized with a dounce homogenizer or a polytron tissue grinder, and centrifuged at 1000×g for 10 min at 4° C. The resulting supernatant was centrifuged at 32,000×g for 30 min at 4° C. The membrane pellets were resuspended in 50 mM Tris HCl, pH 7.4, and stored at −80° C. until use. Protein concentration was determined by the Bradford method (Bio-Rad Laboratories, CA).
Binding assays were carried out in 96-well polypropylene plates in 50 mM Tris HCl, pH 7.4, containing 1 mM EDTA. Reaction mixtures contained 100 μl of membrane suspension, 50 μl of 4% DMSO, and 50 μl of increasing amounts of [^125I]iodoproxyfan (final concentration 0.0005-1.8 nM for human H3 receptor saturation binding assay). Nonspecific binding was defined by adding 10 μM clobenpropit to the reaction mixtures. […]
In the case of `Cc1cc(CC(C)C)n(-c2ccc(OCCCN3CCCC3)cc2)n1` [Example 28, 5-Isobutyl-3-methyl-1-[4-(3-pyrrolidin-1-ylpropoxy)-phenyl]-1H-pyrazole], the Ki is < 100 nM. On to `c1ccc2c(c1)cnn2-c1ccc(OCCCN2CCCC2)cc1` [Example 20, 1-[4-(3-Pyrrolidin-1-ylpropoxy)phenyl]-1H-indazole], for which the Ki was < 10 nM. With `Cc1cc(CC(C)C)nn1-c1ccc(OCCCN2CCCCC2)cc1` [Example 30], the Ki is < 10 nM. Consider `CC(C)(C)c1cc(-c2ccccc2)n(-c2ccc(OCCCN3CCCC3)cc2)n1` [Example 42, 3-tert-Butyl-5-phenyl-1-[4-(3-pyrrolidin-1-ylpropoxy)phenyl]-1H-pyrazole], for which the Ki was < 10 nM.

In the case of `Cc1nn(-c2ccc(OCCCN3CCCC3)cc2)c2c1CCCC2` [Example 55, 3-Methyl-1-[4-(3-pyrrolidin-1-yl-propoxy)-phenyl]-4,5,6,7-tetrahydro-1H-indazole], the Ki is < 10 nM. The result for `Cc1cc(C(=O)NC2CCCCC2)n(-c2ccc(OC3CCN(C4CCC4)CC3)cc2)n1` [Example 13, 2-[4-(1-Cyclobutylpiperidin-4-yloxy)phenyl]-5-methyl-2H-pyrazole-3-carboxylic acid cyclohexylamide] reads < 10 nM.
